# From patent US10639287B2, “Compounds for the treatment of mitochondrial diseases” (UNIVERSITE PARIS-SUD, priority 2014, dated 2020)
# Tests used:
# [1] = test system: Saccharomyces cerevisiae mip1^G651S yeast strain; assay: Inhibition of growth (MIC) / maximum tolerated concentration in yeast culture (DO600 after 24 h); assay type: cell-based; settings: 1-512 μM tested
# Protocol: From o/n pre-culture in selective medium (SC-URA, 2% ethanol (v/v)), 50 mL of rich YPD medium (1% Yeast Extract, 0.5% Bacto Peptone, 2% Glucose) were seeded at a DO600 of 0.05/mL. The 50 mL of culture were distributed in a series of ten tubes on the basis of 2 mL of culture/tube, with 4 mL of culture being placed in the last tube. […] From this tube (tube 1), 2 mL of culture were placed into tube 2. Tube 2 contained 4 ml of culture and clofilium tosylate at a concentration of 256 μM. 2 mL of tube 2 were added to tube 3, and so on. Each tube contained the drug at a concentration equal to half that of the previous tube. Two controls were provided—without clofilium tosylate and with DMSO (the volume being the same as that used to dilute the clofilium tosylate). The cultures were incubated at 28° C. with stirring for 24 hours, and the optical density (DO600) was measured.
# [2] = test system: wild-type N2 BRISTOL line; settings: Caenorhabditis elegans, in vivo, 4 days
# Protocol: A series of NGM dishes containing clofilium tosylate at concentrations of 1 μM, 5 μM, 10 μM, 50 μM, 100 μM or 200 μM were prepared (three dishes for each concentration). Between 30 and 40 synchronised L1 larvae of the wild-type N2 BRISTOL line or mutated VC1224 line (polg-1(ok1458Δ/+)/mT1 II; +/mT1 [dpy-10(el28)] II), these being nematodes carrying a heterozygous deletion of 2149 bp in the sequence encoding the polg-1 gene, were deposited on each of these dishes.
# [3] = test system: complex I in neuronal cybrids derived from a MELAS patient (m.3243A>G tRNA^Leu mutation); assay: Ratio of complex I/citrate synthase activities in MELAS neuronal cybrids; assay type: cell-based, human; settings: 300 nM, 48 hours
# Protocol: The mutant MELAS neuronal transmitochondrial line, which is the result of the fusion of the immortalised neuoroblastoma parental line SHSY-5Y with fibroblasts carrying the mutation m.3243A>G, was created in the laboratory of Prof. Procaccio.
# Neuronal cybrid lines carrying the MELAS mutation and the parental control line were grown in sterile culture flasks and incubated at 37° C. with 5% CO2 in a medium composed of DMEM with 1.5 g/L glucose, 2 mM L-glutamine and supplemented with 10% foetal bovine serum as well as uridine (5 μg/ml) and pyruvate (10 μg/mL). […]
# The MELAS neuronal cybrid line carrying the mutation seemingly in the homoplasmic state (i.e. reaching almost 100% MELAS mutation) and the SHSY-5Y parental control line were used for measurements of enzyme activities. […] These cell pellets were then analysed by spectrophotometry with measurement of the different mitochondrial biochemical activities, particularly the activity of citrate synthase and the activity of complex I of the respiratory chain. […]
# The enzymatic activities were measured according to the protocol described in Medjda et al, 2009 (Medja F, Allouche S, Frachon P, Jardel C, Malgat M, Mousson de Camaret B, Slama A, Lunardi J, Mazat J P, Lombès A. Development and implementation of standardized respiratory chain spectrophotometric assays for clinical diagnosis. Mitochondrion. 2009 September; 9(5):331-9).
smiles,measurement,setting,value
CCCCCCC[N+](CC)(CC)CCCCc1ccc(Cl)cc1.Cc1ccc(S(=O)(=O)[O-])cc1 [clofilium tosylate],concentration chosen for the study in S. cerevisiae (determination of the maximum concentration tolerated),[1],32 µM
same,concentration at which a halt in development at stage L3 or a slowdown in development was observed,[2],100 µM
same,maximum concentration to use,[2],50 µM
same,activity of complex I (ratio complex I/citrate synthase),[3],increased
